# In US20230293614A1, “COMPOSITIONS AND METHODS OF TREATING UPS-ASSOCIATED DISEASES” (Board of Supervisors of Louisiana State University and …, priority 2020, published 2023):
# Tests used:
# [1] = MTT cellular viability assay, MM.1S; type: cell-based; conditions: human, MM.1S cells, read-out: percentage of viable cells
# Procedure: (§1) The effect of PMI-5011 and bioactive compounds on the viability of cells was tested using a standard colorimetric MTT assay. The MTT Cell Proliferation Assay Kit was purchased from VWR, Radnor, Pa. MM.1S and OPM2 cells were treated with 10 μg/mL of PMI-5011 and 1, 10, and 30 μg/mL of DMC-1, DMC-2, KOE and davidigenin and plated at a density of 10^6 cells/mL in a 96-well plate with each well containing 250 μL of the sample. The plated cells were then incubated at 37° C. for 16 h. 10 μg/mL for PMI-5011 and a 16-h treatment period was used in this study based on previous findings by Yu et al.^24 Parallel plates were prepared for positive and negative solvent vehicle control with the same volume of DMSO and ethanol as for the treated cells. On the day of the experiment, the 96-well plates were centrifuged at 1000×g at 4° C. for 5 min in a microplate compatible centrifuge. The media was discarded and 50 μL of serum-free media and 50 μL of the MTT reagent were added into each well. For a background control, 50 μL of the MTT reagent was added into a well containing media only (no cells). The plate was incubated at 37° C. for 3 h in the dark. After incubation, 150 μL of the MTT solvent was added into each well. The plate was wrapped in a foil and placed on an orbital shaker for 15 min. Finally, the absorbance was measured at λex=544 nm and λem=590 nm using a Wallac 1420 VICTOR2 multilabel HTS counter fluorometry (Perkin Elmer (Waltham, Mass.). The percentage viable cells was obtained by Eq. 1.
# (§2) % Viable Cells=S-N/C-N×100 (Eq. 1)
# (§3) Where, S denotes raw absorbance values from samples, N denotes average absorbance value of the background control and C denotes the highest average absorbance value of positive vehicle control. The obtained percentage cytotoxicity values were then statistically analyzed for their significance. Each data point represents triplicate data points from duplicate experiments. The effect of PMI-5011 and the selected bioactive compounds on C2C12 cell viability has previously been reported.^24
# [2] = MTT cellular viability assay, OPM2; type: cell-based; conditions: human, OPM2 cells, read-out: percentage of viable cells
# Procedure: as §1, §2, §3
smiles,measurement,setting,value
"COc1ccc(CCC(=O)c2ccc(O)cc2O)cc1 [DMC-2, 1-(2,4-dihydroxyphenyl)-3-(4-methoxyphenyl)propan-1-one]","viability at 16 h, 1 μg/mL",[1]; 1 μg/mL,~100%
same,"viability at 16 h, 30 μg/mL",[1]; 30 μg/mL,~65%
same,"viability at 16 h, 1 μg/mL",[2]; 1 μg/mL,~85%
same,"viability at 16 h, 30 μg/mL",[2]; 30 μg/mL,~70%
